Results taken from patent publication US11464793B2, “Nutritional formulations including human milk oligosaccharides and antioxidants and uses thereof” (priority 2010, dated 2022).

How the values were obtained:
[1] = test system: monocyte-derived cytokines; test: Monocyte-derived cytokines in peripheral blood mononuclear cells with or without RSV (Example 39); type: cell-based, human; settings: PBMC
Procedure: (§1) Specifically, either 3′SL or 6′SL is added, at concentrations of 0.1 mg/mL, 0.2 mg/mL, or 0.5 mg/mL to fresh peripheral blood mononuclear cells and incubated at 37° C. in 5% CO2 to pretreat the cells for approximately 24 hours. LNnT is added, at concentrations of 0.1 mg/mL, 0.2 mg/mL, or 1 mg/mL to fresh peripheral blood mononuclear cells and incubated at 37° C. in 5% CO2 to pretreat the cells for approximately 24 hours. Lactose is included as a carbohydrate control. Matched endotoxin unit concentration controls are included to allow differentiation of ingredient effects from inherent low levels of endotoxin. Some variables are then incubated with RSV at a multiplicity of infection (MOI) of 0.1 for approximately 1 hour at 37° C. in 5% in CO2. Uninfected control variables are incubated with medium for approximately 1 hour at 37° C. in 5% CO2. After approximately one hour, fresh medium alone, or fresh medium containing the appropriate concentration of 3′SL, 6′SL, LNnT, lactose, or endotoxin is added to the appropriate tubes and the cells are incubated for 48 hours at 37° C. in 5% CO2. Supernatants are collected at 24 and 48 hours post-infection.
(§2) Cytokines are measured in supernatants for each variable at 24 and 48 hours to assess the effects of HMOs on the early immune response to RSV. Cytokines are measured using custom Bio-Plex Human cytokine kits from Bio-Rad. Results for interferon-inducible protein 10 (IP-10, also known as CXCL 10) are shown in FIGS. 3 and 4 for 3′SL and 6′SL, and in FIGS. 5 and 6 for LNnT. IP-10 is a CXC chemokine that attracts, binds to and activates the CXCR3 receptor on natural killer cells and memory T cells. IP-10 is expressed by monocytes and a number of other cells, and is induced by interferon. A positive con-elation exists between RSV clinical disease severity in children (as measured by: length of hospital stay, fever, and number of days supplemental O2 is required) and serum IP-10. Therefore, a decrease in IP-10 signals a decrease in severity of RSV disease experienced.

[2] = test system: interferon-inducible protein 10 (IP-10); test: IP-10 in supernatants of RSV-infected peripheral blood mononuclear cells pretreated with HMO (Example 39); type: cell-based, human; settings: for IP-10 in virus-infected variables: PBMC of two donors, 24 h pretreatment, RSV MOI 0.1, supernatants at 24 and 48 hours, FIGS. 3-6; for IP-10 level reached relative to uninfected controls: RSV-infected PBMC; for dampening of virus-induced inflammation as measured by a decrease in IP-10, comparison: compared with 3′SL; for reduction of inflammation caused by RSV: pretreatment for 24 hours
Procedure: as §1, §2

[3] = test system: respiratory syncytial virus (RSV); test: In vitro inhibition of viral infectivity by purified HMOs (Example 36), RSV; type: cell-based; settings: co-incubation of virus (about 500 to 1,000 units/mL) with HMO at 1 or 10 mg/mL
Procedure: In this Example, the effect of purified human milk oligosaccharides (HMO) on in vitro inhibition of viral infectivity is analyzed.
Samples are prepared by co-incubation of a uniform virus dose of from about 500 units/mL to about 1,000 units/mL of one of three respiratory viruses: (1) respiratory syncytial virus (RSV); (2) human parainfluenza virus (HPIV3); or (3) H1N1 influenza virus with one of the following HMOs: (1) 3′-sialyllactose (3′SL); (2) 6′-sialyllactose (6′SL); (3) 3′-fucosyllactose (3′FL); (4) 2′-fucosyllactose (2′FL); (5) lacto-N-neotetraose (LNnT); or (6) sialic acid (SA). The HMOs are added at concentrations of either 1 mg/mL or 10 mg/mL.

interleukin 10 (IL-10) = test: IL-10 in supernatants of peripheral blood mononuclear cells with or without RSV (Example 39); type: cell-based, human; settings: in the presence or absence of RSV; FIGS. 7-10
Procedure: as §1, with “After approximately one hour, fresh medium alone, or fresh medium containing the appropriate concentration of 3′SL, 6′SL, LNnT, lactose, or endotoxin is added to the appropriate tubes and the cells are incubated for 48 hours at 37° C. in 5% CO2. Supernatants are collected at 24 and 48 hours post-infection.” left out
Cytokines are measured in supernatants for each variable at 24 and 48 hours to assess the effects of HMOs on the early immune response to RSV. Cytokines are measured using custom Bio-Plex Human cytokine kits from Bio-Rad. […] A positive con-elation exists between RSV clinical disease severity in children (as measured by: length of hospital stay, fever, and number of days supplemental O2 is required) and serum IP-10. […]

H1N1 influenza virus [4] = type: cell-based; settings: for IC50 (mg HMO/mL) H1N1 Influenza: co-incubation of virus (about 500 to 1,000 units/mL) with HMO at 1 or 10 mg/mL
[5] = test system: human parainfluenza virus (HPIV3); type: cell-based; settings: co-incubation of virus (about 500 to 1,000 units/mL) with HMO at 1 or 10 mg/mL
H1N1 influenza virus [6] = test: microbe, parasite or virus in culture; type: cell-based; settings: HMO at 10 mg/mL, MDCK cells, FIG. 1

Row | Structure (SMILES) | production of monocyte-derived cytokines (IL-10, MIP-1β, Interferon-γ, IL-8, IL-1α, IL-1β, IL-1ra) [1] | IP-10 in virus-infected variables [2] | IP-10 level reached relative to uninfected controls [2] | dampening of virus-induced inflammation as measured by a decrease in IP-10, comparison [2] | reduction of inflammation caused by RSV [2] | IC50 (mg HMO/mL) RSV [3] | IL-10 concentration (interleukin 10 (IL-10)) | IC50 (mg HMO/mL) H1N1 Influenza (H1N1 influenza virus [4]) | RSV-induced IP-10, Donor B ([2]; Donor B, 0.1, 0.2 or 0.5 mg/mL) | RSV-induced IP-10, Donor E ([2]; Donor E, 0.1, 0.2 or 0.5 mg/mL) | IC50 (mg HMO/mL) HPIV3 [5] | anti-viral activity against H1N1 influenza virus (H1N1 influenza virus [4]; HMO at 1 mg/mL) | inhibition of H1N1 virus infectivity (H1N1 influenza virus [6]) | inhibition at 10000 µg/mL (H1N1 influenza virus [6]; Influenza A virus, H1N1, read-out: inhibition of H1N1 virus infectivity)
1 | CC(=O)N[C@H]1[C@H](O[C@H]2[C@@H](O)[C@@H](CO)O[C@@H](O[C@H]3[C@H](O)[C@@H](O)C(O)O[C@@H]3CO)[C@@H]2O)O[C@H](CO)[C@@H](O[C@@H]2O[C@H](CO)[C@H](O)[C@H](O)[C@H]2O)[C@@H]1O (mixture of isomers) [LNnT, lacto-N-neotetraose] | immunomodulatory in the presence or absence of the virus | clearly downregulates IP-10 | reduce IP-10 to levels found in uninfected controls | more effective than 3′SL | effective in reducing inflammation caused by RSV | >10 mg HMO/mL | increases IL-10 concentration in a dose-dependent manner | >10 mg HMO/mL | – | – | – | – | – | –
2 | CC(=O)N[C@H]1[C@H]([C@H](O)[C@H](O)CO)O[C@@](O[C@H]2[C@@H](O)[C@@H](CO)O[C@@H](O[C@H]3[C@H](O)[C@@H](O)C(O)O[C@@H]3CO)[C@@H]2O)(C(=O)O)C[C@@H]1O (stereo partly shown) [3′SL, 3′-sialyllactose] | immunomodulatory in the presence or absence of the virus | dampen RSV-induced IP-10 | – | – | effective in reducing inflammation caused by RSV | >10 mg HMO/mL | – | ~5 mg HMO/mL | not effective | downregulates RSV-induced IP-10 | >10 mg HMO/mL | inhibited | – | –
3 | CC(=O)N[C@H]1[C@H]([C@H](O)[C@H](O)CO)O[C@@](OC[C@H]2O[C@@H](O[C@H]3[C@H](O)[C@@H](O)[C@H](O)O[C@@H]3CO)[C@H](O)[C@@H](O)[C@H]2O)(C(=O)O)C[C@@H]1O [6′SL, 6′-sialyllactose] | immunomodulatory in the absence of the virus | clearly downregulates IP-10 | reduce IP-10 to levels found in uninfected controls | more effective than 3′SL | effective in reducing inflammation caused by RSV | >10 mg HMO/mL | increases interleukin 10 (IL-10) concentration in a dose-dependent manner | ~10 mg HMO/mL | – | – | >10 mg HMO/mL | – | approximately 60% | –
4 | CC(=O)N[C@H]1[C@H]([C@H](O)[C@H](O)CO)OC(O)(C(=O)O)C[C@@H]1O (stereo partly shown) [SA, sialic acid] | – | – | – | – | – | – | – | – | – | – | – | – | – | > 90%
